From patent US20230150970A1, “AMINOPYRIMIDINE DERIVATIVES AND THEIR USE AS ARYL HYDROCARBON RECEPTOR MODULATORS” (DONG-A ST CO., LTD., priority 2020, published 2023)

Target: T1, AhR (Homo sapiens, UniProt P35869)
T1 sequence (P35869 11-848): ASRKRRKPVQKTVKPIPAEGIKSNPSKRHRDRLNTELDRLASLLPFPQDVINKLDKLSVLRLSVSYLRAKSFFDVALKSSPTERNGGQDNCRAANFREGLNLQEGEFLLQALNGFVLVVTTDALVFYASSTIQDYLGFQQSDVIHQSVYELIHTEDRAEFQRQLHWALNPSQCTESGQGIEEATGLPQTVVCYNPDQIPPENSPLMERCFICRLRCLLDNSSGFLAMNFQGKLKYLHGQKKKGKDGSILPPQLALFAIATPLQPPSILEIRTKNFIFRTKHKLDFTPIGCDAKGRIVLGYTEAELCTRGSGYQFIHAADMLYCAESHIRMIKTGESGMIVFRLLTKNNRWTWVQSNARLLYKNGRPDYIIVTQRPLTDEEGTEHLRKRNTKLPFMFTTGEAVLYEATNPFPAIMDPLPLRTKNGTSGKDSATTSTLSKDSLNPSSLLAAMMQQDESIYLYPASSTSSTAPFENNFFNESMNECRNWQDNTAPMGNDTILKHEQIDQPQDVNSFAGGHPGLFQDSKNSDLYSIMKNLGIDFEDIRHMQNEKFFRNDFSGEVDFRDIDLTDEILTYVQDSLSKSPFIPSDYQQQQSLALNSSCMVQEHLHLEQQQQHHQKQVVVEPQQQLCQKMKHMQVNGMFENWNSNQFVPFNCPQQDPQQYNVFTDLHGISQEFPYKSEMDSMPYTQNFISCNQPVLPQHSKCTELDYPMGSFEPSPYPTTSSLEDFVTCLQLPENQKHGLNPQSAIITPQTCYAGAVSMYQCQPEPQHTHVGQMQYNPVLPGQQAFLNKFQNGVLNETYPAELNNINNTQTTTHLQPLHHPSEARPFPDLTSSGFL
Assay: In Vitro Assay 1: XRE-luciferase reporter assay, antagonism in human cell line (HepG2)
Settings: Assay 1: AhR-Luc Human Antagonism (IC50, nM), values marked *: kynurenine 50 μM, 6 hours
Excerpt: In Vitro XRE-Luciferase Reporter Assay (In Vitro Assay 1, 2, 3) AhR activation leads the induction of target gene expression such as CYP1A1 and CYPIB1 by AhR binding to AhR-responsive DNA elements also known as xenobiotics responsive elements (XREs). The assay for measuring AhR activity herein is the luciferase assay using cell lines transfected with luciferase reporter plasmid containing XREs at the upstream of the reporter gene. Cells transfected with XRE-luciferase reporter (XRE-Luc), plasmid drive luciferase activity reflecting activation and inhibition of AhR in the cells. […] Kynurenine (an endogenous AhR agonist), was used to stimulate cells to test antagonistic properties of the compounds. The half-maximal inhibitory concentration (IC50), or half-maximal effective concentration (EC50), value was calculated using nonlinear regression (four parameters), with Prism8.0 software (GraphPad).
In Vitro Assay 1: Antagonism in Human Cell Line
HepG2 (human hepatoma cell line) cell line with a XRE-luciferase reporter either transiently or stably (Invivogen) were plated in complete medium and incubated at 37° C. in a CO2 incubator. After 24 hours, cells were treated with kynurenine (50* or 200 μM) alone (negative control) or with test compounds for 6 hours. Luciferase activity was measured with a commercial kit such as the Promega Luciferase kit or Invivogen Luciferase kit. Relative luciferase activity (Firefly/Nano-Luc) was used to calculate IC50 values. […] (IC50 values are grouped as A, B, C and D, whereby A: IC50<0.01 μM; B: 0.01<IC50<0.1 μM; C: 0.1<IC50<1.0 μM; D: IC50>1.0 μM)

Question: `Cc1ccc(N2CCN(c3cc(-c4ccc(Cl)cc4)nc(-c4cccnc4)n3)CC2)cc1` [Example 115, 4-(4-chlorophenyl)-2-(pyridin-3-yl)-6-(4-(p-tolyl)piperazin-1-yl)pyrimidine] was tested. Which IC50 did it give?
Answer: > 1000 nM

Question: With `Cc1cccc(N2CCN(c3cc(-c4ccc(Cl)cc4)nc(-c4cccnc4)n3)CC2)c1` [Example 116, 4-(4-chlorophenyl)-2-(pyridin-3-yl)-6-(4-(m-tolyl)piperazin-1-yl)pyrimidine] as the compound, how does the IC50 read?
Answer: > 1000 nM

Question: `FC(F)(F)c1cccc(N2CCN(c3cc(-c4ccc(Cl)cc4)nc(-c4cccnc4)n3)CC2)c1` [Example 117, 4-(4-chlorophenyl)-2-(pyridin-3-yl)-6-(4-(3-(trifluoromethyl)phenyl)piperazin-1-yl)pyrimidine] was tested. Which IC50 did it give?
Answer: 100 to 1000 nM

Question: How did the IC50 turn out when `Clc1ccc(-c2cc(N3CCN(c4ccc(Cl)c(Cl)c4)CC3)nc(-c3cccnc3)n2)cc1` [Example 119, 4-(4-chlorophenyl)-6-(4-(3,4-dichlorophenyl)piperazin-1-yl)-2-(pyridin-3-yl)pyrimidine] was run?
Answer: > 1000 nM

Question: Which IC50 does the source give for `COc1ccc(N2CCN(c3cc(-c4ccc(Cl)cc4)nc(-c4cccnc4)n3)CC2)cc1` [Example 120, 4-(4-chlorophenyl)-6-(4-(4-methoxyphenyl)piperazin-1-yl)-2-(pyridin-3-yl)pyrimidine] here?
Answer: < 10 nM

Question: Which IC50 does the source give for `O=[N+]([O-])c1ccc(N2CCN(c3cc(-c4ccc(Cl)cc4)nc(-c4cccnc4)n3)CC2)cc1` [Example 121, 4-(4-chlorophenyl)-6-(4-(4-nitrophenyl)piperazin-1-yl)-2-(pyridin-3-yl)pyrimidine] here?
Answer: > 1000 nM

Question: With `CN1CCN(C2CCN(c3cc(-c4ccc(Cl)cc4)nc(-c4cccnc4)n3)C2)CC1` (stereo not drawn) [Example 122, 4-(4-chlorophenyl)-6-(3-(4-methylpiperazin-1-yl)pyrrolidin-1-yl)-2-(pyridin-3-yl)pyrimidine] as the compound, how does the IC50 read?
Answer: 10 to 100 nM

Question: Which IC50 does the source give for `Clc1ccc(-c2cc(N3CCN(C(c4ccccc4)c4ccccc4)CC3)nc(-c3cccnc3)n2)cc1` [Example 123, 4-(4-benzhydrylpiperazin-1-yl)-6-(4-chlorophenyl)-2-(pyridin-3-yl)pyrimidine] here?
Answer: > 1000 nM

Question: Which IC50 does the source give for `Clc1ccc(-c2cc(N3CCN(C(c4ccccc4)c4ccc(Cl)cc4)CC3)nc(-c3cccnc3)n2)cc1` (stereo not drawn) [Example 124, 4-(4-chlorophenyl)-6-(4-((4-chlorophenyl)(phenyl)methyl)piperazin-1-yl)-2-(pyridin-3-yl)pyrimidine] here?
Answer: > 1000 nM

Question: How did the IC50 turn out when `Clc1ccc(-c2cc(N3CCC4(C=Cc5ccccc54)CC3)nc(-c3cccnc3)n2)cc1` [Example 125, 1′-(6-(4-chlorophenyl)-2-(pyridin-3-yl)pyrimidin-4-yl)spiro[indene-1,4′-piperidine]] was run?
Answer: 100 to 1000 nM

Question: For `Clc1ccc(-c2cc(NC3CCNC3)nc(-c3cccnc3)n2)cc1` (stereo not drawn) [Example 126, 6-(4-chlorophenyl)-2-(pyridin-3-yl)-N-(pyrrolidin-3-yl)pyrimidin-4-amine], which IC50 is on record?
Answer: > 1000 nM

Question: Which IC50 does the source give for `Clc1ccc(-c2cc(N[C@@H]3CCNC3)nc(-c3cccnc3)n2)cc1` [Example 127, (R)-6-(4-chlorophenyl)-2-(pyridin-3-yl)-N-(pyrrolidin-3-yl)pyrimidin-4-amine] here?
Answer: > 1000 nM

Question: For `Clc1ccc(-c2cc(NC[C@@H]3CCNC3)nc(-c3cccnc3)n2)cc1` [Example 128, (R)-6-(4-chlorophenyl)-2-(pyridin-3-yl)-N-(pyrrolidin-3-ylmethyl)pyrimidin-4-amine], which IC50 is on record?
Answer: > 1000 nM

Question: How did the IC50 turn out when `Clc1ccc(-c2cc(NCCN3CCCC3)nc(-c3cccnc3)n2)cc1` [Example 129, 6-(4-chlorophenyl)-2-(pyridin-3-yl)-N-(2-(pyrrolidin-1-yl)ethyl)pyrimidin-4-amine] was run?
Answer: > 1000 nM

Question: How did the IC50 turn out when `Clc1ccc(-c2cc(NCCCN3CCCC3)nc(-c3cccnc3)n2)cc1` [Example 130, 6-(4-chlorophenyl)-2-(pyridin-3-yl)-N-(3-(pyrrolidin-1-yl)propyl)pyrimidin-4-amine] was run?
Answer: > 1000 nM

Question: `CN1CCCC1CCNc1cc(-c2ccc(Cl)cc2)nc(-c2cccnc2)n1` (stereo not drawn) [Example 131, 6-(4-chlorophenyl)-N-(2-(1-methylpyrrolidin-2-yl)ethyl)-2-(pyridin-3-yl)pyrimidin-4-amine] was tested. Which IC50 did it give?
Answer: > 1000 nM

Question: With `Clc1ccc(-c2cc(NC3CCN(Cc4ccccc4)C3)nc(-c3cccnc3)n2)cc1` (stereo not drawn) [Example 132, N-(1-benzylpyrrolidin-3-yl)-6-(4-chlorophenyl)-2-(pyridin-3-yl)pyrimidin-4-amine] as the compound, how does the IC50 read?
Answer: 100 to 1000 nM

Question: Which IC50 does the source give for `O[C@@H]1CNC[C@@H]1Nc1cc(-c2ccc(Cl)cc2)nc(-c2cccnc2)n1` [Example 133, (3R,4S)-4-((6-(4-chlorophenyl)-2-(pyridin-3-yl)pyrimidin-4-yl)amino)pyrrolidin-3-ol] here?
Answer: > 1000 nM

Question: `O[C@H]1CNC[C@H]1Nc1cc(-c2ccc(Cl)cc2)nc(-c2cccnc2)n1` [Example 134, (3S,4R)-4-((6-(4-chlorophenyl)-2-(pyridin-3-yl)pyrimidin-4-yl)amino)pyrrolidin-3-ol] was tested. Which IC50 did it give?
Answer: > 1000 nM

Question: For `Clc1ccc(-c2cc(N3CCCC3)nc(-c3cccnc3)n2)cc1` [Example 135, 4-(4-chlorophenyl)-2-(pyridin-3-yl)-6-(pyrrolidin-1-yl)pyrimidine], which IC50 is on record?
Answer: 10 to 100 nM

Question: `CC1CCCN1c1cc(-c2ccc(Cl)cc2)nc(-c2cccnc2)n1` (stereo not drawn) [Example 136, 4-(4-chlorophenyl)-6-(2-methylpyrrolidin-1-yl)-2-(pyridin-3-yl)pyrimidine] was tested. Which IC50 did it give?
Answer: 100 to 1000 nM

Question: For `OCC1CCN(c2cc(-c3ccc(Cl)cc3)nc(-c3cccnc3)n2)C1` (stereo not drawn) [Example 138, (1-(6-(4-chlorophenyl)-2-(pyridin-3-yl)pyrimidin-4-yl)pyrrolidin-3-yl)methanol], which IC50 is on record?
Answer: < 10 nM

Question: For `F[C@@H]1CCN(c2cc(-c3ccc(Cl)cc3)nc(-c3cccnc3)n2)C1` [Example 139, (R)-4-(4-chlorophenyl)-6-(3-fluoropyrrolidin-1-yl)-2-(pyridin-3-yl)pyrimidine], which IC50 is on record?
Answer: 10 to 100 nM

Question: For `NC1CCN(c2cc(-c3ccc(Cl)cc3)nc(-c3cccnc3)n2)C1` (stereo not drawn) [Example 140, 1-(6-(4-chlorophenyl)-2-(pyridin-3-yl)pyrimidin-4-yl)pyrrolidin-3-amine], which IC50 is on record?
Answer: > 1000 nM

Question: `CNC1CCN(c2cc(-c3ccc(Cl)cc3)nc(-c3cccnc3)n2)C1` (stereo not drawn) [Example 141, 1-(6-(4-chlorophenyl)-2-(pyridin-3-yl)pyrimidin-4-yl)-N-methylpyrrolidin-3-amine] was tested. Which IC50 did it give?
Answer: > 1000 nM

Question: With `COC(=O)[C@@H]1CCCN1c1cc(-c2ccc(Cl)cc2)nc(-c2cccnc2)n1` [Example 142, methyl (6-(4-chlorophenyl)-2-(pyridin-3-yl)pyrimidin-4-yl)prolinate] as the compound, how does the IC50 read?
Answer: 100 to 1000 nM

Question: With `CC(O)C(C)Nc1cc(-c2ccc(Cl)cc2)nc(-c2cccnc2)n1` (stereo not drawn) [Example 145, 3-((6-(4-chlorophenyl)-2-(pyridin-3-yl)pyrimidin-4-yl)amino)butan-2-ol] as the compound, how does the IC50 read?
Answer: 100 to 1000 nM

Question: How did the IC50 turn out when `OC[C@@H]1CCCN(c2cc(-c3ccc(Cl)cc3)nc(-c3cccnc3)n2)C1` [Example 147, (R)-(1-(6-(4-chlorophenyl)-2-(pyridin-3-yl)pyrimidin-4-yl)piperidin-3-yl)methanol] was run?
Answer: < 10 nM

Question: With `OC[C@H]1CCCN(c2cc(-c3ccc(Cl)cc3)nc(-c3cccnc3)n2)C1` [Example 148, (S)-(1-(6-(4-chlorophenyl)-2-(pyridin-3-yl)pyrimidin-4-yl)piperidin-3-yl)methanol] as the compound, how does the IC50 read?
Answer: 10 to 100 nM

Question: Which IC50 does the source give for `Clc1ccc(-c2cc(NCCN3CCCCC3)nc(-c3cccnc3)n2)cc1` [Example 149, 6-(4-chlorophenyl)-N-(2-(piperidin-1-yl)ethyl)-2-(pyridin-3-yl)pyrimidin-4-amine] here?
Answer: > 1000 nM

Question: How did the IC50 turn out when `N#CC1CCN(c2cc(-c3ccc(Cl)cc3)nc(-c3cccnc3)n2)CC1` [Example 150, 1-(6-(4-chlorophenyl)-2-(pyridin-3-yl)pyrimidin-4-yl)piperidine-4-carbonitrile] was run?
Answer: < 10 nM

Question: For `OC1(c2cccc(C(F)(F)F)c2)CCN(c2cc(-c3ccc(Cl)cc3)nc(-c3cccnc3)n2)CC1` [Example 151, 1-(6-(4-chlorophenyl)-2-(pyridin-3-yl)pyrimidin-4-yl)-4-(3-(trifluoromethyl)phenyl)piperidin-4-ol], which IC50 is on record?
Answer: > 1000 nM

Question: With `Clc1ccc(-c2cc(N3CCC(N4CCCC4)CC3)nc(-c3cccnc3)n2)cc1` [Example 152, 4-(4-chlorophenyl)-2-(pyridin-3-yl)-6-(4-(pyrrolidin-1-yl)piperidin-1-yl)pyrimidine] as the compound, how does the IC50 read?
Answer: 100 to 1000 nM

Question: Which IC50 does the source give for `OC1(c2ccc(Cl)cc2)CCN(c2cc(-c3ccc(Cl)cc3)nc(-c3cccnc3)n2)CC1` [Example 153, 4-(4-chlorophenyl)-1-(6-(4-chlorophenyl)-2-(pyridin-3-yl)pyrimidin-4-yl)piperidin-4-ol] here?
Answer: > 1000 nM

Question: `CC(=O)C1(c2ccccc2)CCN(c2cc(-c3ccc(Cl)cc3)nc(-c3cccnc3)n2)CC1` [Example 155, 1-(1-(6-(4-chlorophenyl)-2-(pyridin-3-yl)pyrimidin-4-yl)-4-phenylpiperidin-4-yl)ethan-1-one] was tested. Which IC50 did it give?
Answer: > 1000 nM

Question: Which IC50 does the source give for `Clc1ccc(-c2cc(N3CCC(N4CCOCC4)CC3)nc(-c3cccnc3)n2)cc1` [Example 156, 4-(1-(6-(4-chlorophenyl)-2-(pyridin-3-yl)pyrimidin-4-yl)piperidin-4-yl)morpholine] here?
Answer: < 10 nM
